These results are taken from US9067937B2 (priority 2012, dated 2015).

The target of assay [1] is MELK (Homo sapiens, UniProt Q14680). The assay can be described thus: Kinase assay (IMAP fluorescence polarization, FITC-labeled histone H3 peptide). The format is biochemical. As to conditions: 50 micro-M ATP. The gist of the method: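 Kinase (0.8 ng/μL) reacted with 100 nM FITC-histone H3 peptide and 50 μM ATP in 20 mM HEPES, 0.3 mM MgCl2, 2 mM DTT, 0.01% Tween-20, pH 7.4, for 1 hour at room temperature. Phosphorylation read by IMAP fluorescence polarization after adding binding solution; IC50 from four-parameter fit.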
(Fluorescence polarisation rises when a labelled molecule tumbles more slowly, as on binding a larger partner.)

In assay [2] the test system is A549 cells. The assay can be described thus: Cell-based assay, anti-proliferative activity (Cell Counting Kit-8, 72 hours). Further details: species or system human. As to conditions: Homo sapiens, A549, 72 h, read-out: IC50 (μM) (A549). An outline of the steps: (§1)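 Cells seeded at 2,000–3,000 cells/well and exposed to candidate MELK inhibitors for 72 hours; growth measured with Cell Counting Kit-8. IC50 values calculated from the growth read-out.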

Assay [3] relates to T47D cells. The assay is described as above. Further details: species or system human. Particulars: Homo sapiens, T47D, 72 h, read-out: IC50 (μM) (T47D). The gist of the method:
as §1

Assay [4] has as its system DU4475 cells. The assay is described as above. Further details: species or system human. As to conditions: Homo sapiens, DU-4475, 72 h, read-out: IC50 (μM) (DU4475). An outline of the steps:
as §1

The test system of assay [5] is 22Rv1 cells. Described as above. As to conditions: Homo sapiens, 22Rv1, 72 h, read-out: IC50 (μM) (22Rvl). The arrangement: species or system human. The gist of the method: as §1
Assay [6] has as its system HT1197 cells. The assay can be described thus: Cell-based assay, anti-proliferative activity, MELK-negative control (Cell Counting Kit-8, 72 hours). As to conditions: Homo sapiens, HT1197, 72 h, read-out: IC50 (μM) (HTll97). Further details: species or system human. The procedure:
100 micro-L of cell suspension was seeded onto 96-well microtiter plate (ViewPlate-96FTC, PerkinElmer). The initial cell concentration of 22Rv1, T47D, A549, DU4475, and HT1197 were 3,000 cells/well, 2,000 cells/well and 2,500 cells/well, respectively. Cellular growth was determined using Cell Counting Kit-8 (DOJINDO) at 72 hours after the exposure of the candidate inhibitors. […] Accurate IC50 values were calculated as described previously.

The structures appear in SMILES notation. Structures can show the parent of a compound that is named as a salt.

Chain of MELK (Q14680 whole entry, looked up): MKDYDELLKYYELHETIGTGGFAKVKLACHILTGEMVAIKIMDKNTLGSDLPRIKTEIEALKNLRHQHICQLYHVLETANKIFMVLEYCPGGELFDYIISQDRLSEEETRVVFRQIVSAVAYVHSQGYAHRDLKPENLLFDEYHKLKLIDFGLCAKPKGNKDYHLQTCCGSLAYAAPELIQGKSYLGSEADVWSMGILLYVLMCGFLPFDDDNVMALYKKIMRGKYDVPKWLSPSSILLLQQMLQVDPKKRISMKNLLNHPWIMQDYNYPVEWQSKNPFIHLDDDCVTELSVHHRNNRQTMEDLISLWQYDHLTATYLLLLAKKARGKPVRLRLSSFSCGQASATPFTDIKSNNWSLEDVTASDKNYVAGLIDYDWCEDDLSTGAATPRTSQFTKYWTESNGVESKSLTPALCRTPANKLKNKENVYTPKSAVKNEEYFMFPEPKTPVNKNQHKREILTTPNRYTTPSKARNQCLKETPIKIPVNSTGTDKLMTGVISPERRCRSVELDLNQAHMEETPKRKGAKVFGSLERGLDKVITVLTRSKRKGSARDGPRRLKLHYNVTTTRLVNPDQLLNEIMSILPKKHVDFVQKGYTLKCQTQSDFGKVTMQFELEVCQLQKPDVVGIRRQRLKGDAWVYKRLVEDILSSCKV

By IC50 is commonly meant the midpoint of a concentration-inhibition curve. Take `CNC1CCN(c2ccc(Nc3c(C(C)=O)cnc4ccc(-c5cc(F)c(O)c(Cl)c5)nc34)cn2)C1` (stereo not drawn) [Example 54, 1-(6-(3-Chloro-5-fluoro-4-hydroxyphenyl)-4-{6-[3-(methylamino)pyrrolidin-1-yl]pyridin-3-ylamino}-1,5-naphthyridin-3-yl)ethanone trihydrochloride]: the IC50 in assay [1] is 0.012 µM; in assay [2] it was 0.17 µM; in assay [3], 0.04 µM; in assay [4], 0.11 µM; in assay [5], 0.086 µM; in assay [6], 3.9 µM.

`CN(C)CCOc1ccc(Nc2c(S(C)(=O)=O)cnc3ccc(-c4cc(F)c(O)c(Cl)c4)nc23)cn1` [Example 25, 2-Chloro-4-(8-{6-[2-(dimethylamino)ethoxy]pyridin-3-ylamino}-7-(methylsulfonyl)-1,5-naphthyridin-2-yl)-6-fluorophenol dihydrochloride]: the IC50 was 0.019 µM in assay [1]; 5.9 µM in assay [2]; 0.7 µM in assay [3]; 0.74 µM in assay [4]; 2.8 µM in assay [5]; 21 µM in assay [6].

As for `CN(C)[C@H]1CC[C@H](Nc2c(C(=O)C3CC3)cnc3ccc(-c4cc(Cl)c(O)c(Cl)c4)nc23)CC1` [Example 80, Cyclopropyl {6-(3,5-dichloro-4-hydroxyphenyl)-4-[trans-4-(dimethylamino)-cyclohexylamino]-1,5-naphthyridin-3-yl}methanone dihydrochloride], the IC50 in assay [1] stood at 0.0006 µM; in assay [2], 0.0076 µM; in assay [3], 0.0041 µM; in assay [4], 0.002 µM; in assay [5], 0.0052 µM; in assay [6], 0.084 µM.

Regarding `CC(=O)c1cnc2ccc(-c3cc(F)c(O)c(Cl)c3)nc2c1Nc1ccc(N2CCC(N(C)C)C2)nc1` (stereo not drawn) [Example 52, 1-[6-(3-Chloro-5-fluoro-4-hydroxyphenyl)-4-{6-[3-(dimethylamino)pyrrolidin-1-yl]pyridin-3-ylamino}-1,5-naphthyridin-3-yl]ethanone trihydrochloride], the IC50 in assay [1] was found to be 0.027 µM; in assay [2] it was 0.39 µM; in assay [3], 0.18 µM; in assay [4], 0.4 µM; in assay [5], 0.44 µM; in assay [6] it was 2 µM.

Consider `CC(=O)c1cnc2ccc(-c3cc(F)c(O)c(Cl)c3)nc2c1NC1CCN(C)CC1` [Example 46, 1-{6-(3-Chloro-5-fluoro-4-hydroxyphenyl)-4-[(1-methylpiperidin-4-yl)amino]-1,5-naphthyridin-3-yl}ethanone], for which the IC50 in assay [1] came out at 0.0061 µM; in assay [2], 0.098 µM; in assay [3], 0.092 µM; in assay [4] it was 0.14 µM; in assay [5], 0.14 µM; in assay [6] it was 0.53 µM.

For the molecule `CC(=O)c1cnc2ccc(-c3cc(Cl)c(O)c(Cl)c3)nc2c1NCC1CCN(C)CC1` [Example 27, 1-(6-(3,5-Dichloro-4-hydroxyphenyl)-4-((1-methylpiperidin-4-yl)methylamino)-1,5-naphthyridin-3-yl)ethanone dihydrochloride], the IC50 came to 0.0007 µM in assay [1]; 0.11 µM in assay [2]; 0.079 µM in assay [3]; 0.1 µM in assay [4]; 0.1 µM in assay [5]; 2 µM in assay [6].

As for `CN(C)C[C@H]1CC[C@H](Nc2c(C(=O)CO)cnc3ccc(-c4cc(F)c(O)c(Cl)c4)nc23)CC1` [Example 204, 1-[6-(3-chloro-5-fluoro-4-hydroxyphenyl)-4-({trans-4-[(dimethylamino)methyl]cyclohexyl}amino)-1,5-naphthyridin-3-yl)]-2-hydroxyethanone dihydrochloride], the IC50 in assay [1] was found to be 0.0013 µM; in assay [2] it was 0.058 µM; in assay [3], 0.014 µM; in assay [4], 0.013 µM; in assay [5], 0.02 µM; in assay [6] it was 10 µM.

Regarding `CC(=O)c1cnc2ccc(-c3cc(Cl)c(O)c(Cl)c3)nc2c1Nc1ccc(OCCN(C)C)nc1` [Example 21, 1-[6-(3,5-Dichloro-4-hydroxyphenyl)-4-{6-[2-(dimethylamino)ethoxy]pyridin-3-ylamino}-1,5-naphthyridin-3-yl)ethanone dihydrochloride], the IC50 in assay [1] is 0.0046 µM; in assay [2], 0.21 µM; in assay [3], 0.1 µM; in assay [4], 0.096 µM; in assay [5], 0.27 µM; in assay [6] it was 2.3 µM.

In the case of `CC(=O)c1cnc2ccc(-c3cc(F)c(O)c(Cl)c3)nc2c1N[C@H]1CC[C@@H](CN(C)C)CC1` [Example 93, 1-{6-(3-Chloro-5-fluoro-4-hydroxyphenyl)-4-({cis-4-[(dimethylamino)methyl]cyclohexyl}-amino)-1,5-naphthyridin-3-yl}ethanone dihydrochloride], the IC50 in assay [1] was determined as 0.0011 µM; in assay [2], 0.039 µM; in assay [3], 0.02 µM; in assay [4], 0.011 µM; in assay [5] it was 0.032 µM; in assay [6], 0.19 µM.

`CC(=O)c1cnc2ccc(-c3cc(Cl)c(O)c(Cl)c3)nc2c1N1CCC(CCN2CCCC2)CC1` [Example 36, 1-[6-(3,5-Dichloro-4-hydroxyphenyl)-4-{4-[2-(pyrrolidin-1-yl)ethyl]piperidin-1-yl}-1,5-naphthyridin-3-yl]ethanone dihydrochloride]: the IC50 in assay [1] came out at 0.0021 µM; in assay [2], 0.63 µM; in assay [3], 0.21 µM; in assay [4], 0.22 µM; in assay [5], 0.36 µM; in assay [6] it was 4.7 µM.

For `CC(=O)c1cnc2ccc(-c3cc(Cl)c(O)c(Cl)c3)nc2c1N[C@H]1CC[C@H](NC(=O)[C@@H]2CCCN2)CC1` [Example 75, (S)—N-{4-[3-Acetyl-6-(3,5-dichloro-4-hydroxyphenyl)-1,5-naphthyridin-trans-4-ylamino]-cyclohexyl}pyrrolidine-2-carboxamide dihydrochloride], the IC50 in assay [1] turned out to be 0.001 µM; in assay [2] it was 0.21 µM; in assay [3] it was 0.036 µM; in assay [4], 0.021 µM; in assay [5], 0.099 µM; in assay [6], 8.4 µM.

On to `CC(=O)c1cnc2ccc(-c3cc(Cl)c(O)c(Cl)c3)nc2c1N[C@H]1CC[C@H](NC(=O)C(C)N)CC1` (stereo partly drawn) [Example 73, N-{trans-4-[3-Acetyl-6-(3,5-dichloro-4-hydroxyphenyl)-1,5-naphthyridin-4-ylamino]-cyclohexyl}-2-aminopropanamide dihydrochloride], for which the IC50 in assay [1] was determined as 0.0075 µM; in assay [2] it was 0.18 µM; in assay [3], 0.0086 µM; in assay [4], 0.0043 µM; in assay [5] it was 0.027 µM; in assay [6] it was 100 µM.

Take `CC(=O)c1cnc2ccc(-c3cc(Cl)c(O)c(Cl)c3)nc2c1N[C@H]1CC[C@H](N(C)C)CC1` [Example 2, 1-{6-(3,5-Dichloro-4-hydroxyphenyl)-4-[trans-4-(dimethylamino)cyclohexylamino]-1,5-naphthyridin-3-yl}ethanone dihydrochloride]: the IC50 in assay [1] worked out at 0.0003 µM; in assay [2] it was 0.004 µM; in assay [3], 0.0018 µM; in assay [4] it was 0.0015 µM; in assay [5], 0.0032 µM; in assay [6], 0.19 µM.

In the case of `N[C@H]1CCCN(c2ccc(Nc3c(C(=O)C4CC4)cnc4ccc(-c5cc(F)c(O)c(Cl)c5)nc34)cn2)C1` [Example 83, (S)-{4-[6-(3-Aminopiperidin-1-yl)pyridin-3-ylamino]-6-(3-chloro-5-fluoro-4-hydroxyphenyl)-1,5-naphthyridin-3-yl}(cyclopropyl)methanone], the IC50 in assay [1] is 0.001 µM; in assay [2], 0.09 µM; in assay [3], 0.012 µM; in assay [4] it was 0.015 µM; in assay [5], 0.025 µM; in assay [6], 2.7 µM.

Regarding `CC(=O)c1cnc2ccc(-c3cc(F)c(O)c(Cl)c3)nc2c1N[C@H]1CC[C@H](N)CC1` [Example 67, 1-{4-[trans-(4-Aminocyclohexyl)amino]-6-(3-chloro-5-fluoro-4-hydroxyphenyl)-1,5-naphthyridin-3-yl}ethanone dihydrochloride], the IC50 in assay [1] is 0.0012 µM; in assay [2], 0.022 µM; in assay [3] it was 0.0019 µM; in assay [4], 0.0012 µM; in assay [5], 0.0061 µM; in assay [6], 2.8 µM.

With `CN(C)[C@H]1CC[C@H](Nc2c(S(C)(=O)=O)cnc3ccc(-c4cc(Cl)c(O)c(Cl)c4)nc23)CC1` [Example 15, 2,6-Dichloro-4-{8-[trans-4-(dimethylamino)cyclohexylamino]-7-(methylsulfonyl)-1,5-naphthyridin-2-yl}phenol dihydrochloride], the IC50 in assay [1] turned out to be 0.0005 µM; in assay [2], 0.092 µM; in assay [3], 0.018 µM; in assay [4], 0.0027 µM; in assay [5] it was 0.026 µM; in assay [6], 2.2 µM.
